According to ChEMBL document CHEMBL5236660, “Design, synthesis, and biological evaluation of quinoxalinone derivatives as potent BRD4 inhibitors” (Bioorg Med Chem, 2023):
Active and inactive are the calls of the source. The calls are words filed in the database; no cut-off is given here.

How the values were obtained:
HepG2 [1] = assay: Antiproliferative activity against human HepG2 cells assessed as reduction in cell viability incubated for 72 hrs by MTT assay; assay type: functional, cell-based; details: HepG2, 72 h
MCF7 = assay: Antiproliferative activity against human MCF7 cells assessed as reduction in cell viability incubated for 72 hrs by MTT assay; assay type: functional, cell-based; details: MCF7, 72 h
HT-29 = assay: Antiproliferative activity against human HT-29 cells assessed as reduction in cell viability incubated for 72 hrs by MTT assay; assay type: functional, cell-based; details: HT-29, 72 h
[2] = Cytotoxicity against human GES1 cells assessed as reduction in cell viability incubated for 72 hrs by MTT assay; assay type: toxicity, cell-based
[3] = biological target: Bromodomain-containing protein 4 (Homo sapiens, UniProt O60885); assay: Inhibition of BRD4 BD1 (unknown origin) by TR-FRET assay
HepG2 [4] = assay: Induction of apoptosis in human HepG2 cells assessed as increase in p21 level at 2.5 uM incubated for 24 hrs by Western blot analysis; assay type: functional, cell-based
HepG2 [5] = assay: Inhibition of c-myc expression in human HepG2 cells at 5 uM incubated for 24 hrs by Western blot analysis; assay type: functional, cell-based
HepG2 [6] = assay: Induction of cell cycle arrest in human HepG2 cells assessed as accumulation at S phase at 5 uM incubated for 24 hrs by flow cytometry (Rvb= 20.1%); assay type: functional
HepG2 [7] = assay: Induction of cell cycle arrest in human HepG2 cells assessed as accumulation at G2/M phase at 5 uM incubated for 24 hrs by flow cytometry (Rvb= 14.05%); assay type: functional
HepG2 [8] = assay: Induction of apoptosis in human HepG2 cells assessed as increase in cleaved caspase-3 level at 2.5 uM incubated for 24 hrs by Western blot analysis; assay type: functional, cell-based
HepG2 [9] = assay: Induction of cell cycle arrest in human HepG2 cells assessed as accumulation at G0/G1 phase at 5 uM incubated for 24 hrs by flow cytometry (Rvb= 46.5%); assay type: functional
HepG2 [10] = assay: Induction of apoptosis in human HepG2 cells assessed as late apoptotic cells at 5 uM incubated for 24 hrs by Annexin-V/PI staining based flow cytometry (Rvb=0.66%); assay type: functional
HepG2 [11] = assay: Induction of apoptosis in human HepG2 cells assessed as necrotic cells at 5 uM incubated for 24 hrs by Annexin-V/PI staining based flow cytometry (Rvb=0.85%); assay type: functional
HepG2 [12] = assay: Induction of apoptosis in human HepG2 cells assessed as early apoptotic cells at 5 uM incubated for 24 hrs by Annexin-V/PI staining based flow cytometry (Rvb=4.48%); assay type: functional
HepG2 [13] = assay: Induction of apoptosis in human HepG2 cells assessed as viable cells at 5 uM incubated for 24 hrs by Annexin-V/PI staining based flow cytometry (Rvb=94.0%); assay type: functional; details: read-out: Activity
HepG2 [14] = assay: Induction of apoptosis in human HepG2 cells assessed as total apoptotic cells at 5 uM incubated for 24 hrs by Annexin-V/PI staining based flow cytometry (Rvb=5.14%); assay type: functional

| Compound | IC50 (HepG2 [1]) | IC50 (MCF7) | IC50 (HT-29) | IC50 at 72 h [2] | IC50 [3] | further results |
| --- | --- | --- | --- | --- | --- | --- |
| CCc1nc2cc(-c3cc(NS(C)(=O)=O)ccc3Oc3ccc(F)cc3F)ccc2[nH]c1=O | 14.8 µM | 1.93 µM | 16.5 µM | 29.8 µM |  |  |
| Cc1nc2cc(-c3cc(C(=O)N4CCOCC4)ccc3Oc3ccc(F)cc3F)ccc2[nH]c1=O |  |  |  |  | 1.48 µM |  |
| Cc1nc2cc(-c3cc(NS(C)(=O)=O)ccc3Oc3ccc(F)cc3Cl)ccc2[nH]c1=O |  |  |  |  | 1.56 µM |  |
| Cc1nc2cc(-c3cc(C(C)O)ccc3Oc3ccc(F)cc3F)ccc2[nH]c1=O (stereo not given) | 33.5 µM | 34.5 µM | 20.2 µM | 30.8 µM | 0.406 µM |  |
| Cc1nc2cc(-c3cc(CS(C)(=O)=O)ccc3Oc3ccc(F)cc3F)ccc2[nH]c1=O | 22.9 µM | > 50 µM | 17.6 µM | 36.1 µM | 0.753 µM |  |
| CCS(=O)(=O)Nc1ccc(Oc2ccc(F)cc2F)c(-c2cn(C)c(=O)c3[nH]ccc23)c1 [MIVEBRESIB] | 4.29 µM | 12.3 µM | 1.84 µM | 4.31 µM | 0.0007 µM | Activity (HepG2 [4]): Active; inhibition (HepG2 [5]): Active; Activity (HepG2 [6]): 13.1%; Activity (HepG2 [7]): 19.6%; Activity (HepG2 [8]): Active; Activity (HepG2 [9]): 56.2%; Activity (HepG2 [10]): 2.81%; Activity (HepG2 [11]): 1.63%; Activity (HepG2 [12]): 32%; viability at 5 µM (HepG2 [13]): 63.6%; Activity (HepG2 [14]): 34.81% |
| Cc1nc2cc(-c3cc(NS(C)(=O)=O)ccc3Oc3ccc(F)cc3F)ccc2[nH]c1=O | 16.1 µM | 7.44 µM | 6.86 µM | 33.5 µM |  |  |
| Cc1nc2cc(-c3cc(C(=O)NCCO)ccc3Oc3ccc(F)cc3F)ccc2[nH]c1=O | 17.9 µM | > 50 µM | 15.1 µM | > 100 µM | 0.621 µM |  |
| COC(=O)c1ccc(Oc2ccc(F)cc2F)c(-c2ccc3[nH]c(=O)c(C)nc3c2)c1 |  |  |  |  | 4.22 µM |  |
| Cc1nc2cc(-c3cc(C=O)ccc3Oc3ccc(F)cc3F)ccc2[nH]c1=O |  |  |  |  | 2.51 µM |  |
| COc1cc(Cl)ccc1Oc1ccc(NS(C)(=O)=O)cc1-c1ccc2[nH]c(=O)c(C)nc2c1 |  |  |  |  | 2.33 µM |  |
| Cc1nc2cc(-c3cc(S(C)(=O)=O)ccc3Oc3ccc(F)cc3F)ccc2[nH]c1=O |  |  |  |  | 3.97 µM |  |
| Cc1nc2cc(-c3cc(NS(C)(=O)=O)ccc3Oc3ccc(Cl)cc3)ccc2[nH]c1=O | 11.3 µM | 4.64 µM | 8.09 µM | 18.1 µM | 0.341 µM |  |
| COc1ccccc1Oc1ccc(NS(C)(=O)=O)cc1-c1ccc2[nH]c(=O)c(C)nc2c1 |  |  |  |  | 2.83 µM |  |
| Cc1nc2cc(-c3cc(C(=O)N4CCN(C)CC4)ccc3Oc3ccc(F)cc3F)ccc2[nH]c1=O |  |  |  |  | 1.31 µM |  |
| Cc1nc2cc(-c3cc(C(C)(C)O)ccc3Oc3ccc(F)cc3F)ccc2[nH]c1=O |  |  |  |  | 1.13 µM |  |
| Cc1nc2cc(-c3cc(NS(C)(=O)=O)ccc3Oc3ccc(F)cc3)ccc2[nH]c1=O | 11.3 µM | 3.81 µM | 6.4 µM | 36.5 µM | 0.103 µM |  |
| Cc1ccccc1Oc1ccc(NS(C)(=O)=O)cc1-c1ccc2[nH]c(=O)c(C)nc2c1 |  |  |  |  | 2.12 µM |  |
| Cc1nc2cc(-c3cc(NS(C)(=O)=O)ccc3Oc3ccccc3C(F)(F)F)ccc2[nH]c1=O |  |  |  |  | 2.65 µM |  |
| CCS(=O)(=O)Nc1ccc(Oc2ccc(F)cc2F)c(-c2ccc3[nH]c(=O)c(C)nc3c2)c1 | 5.41 µM | 9.78 µM | 16.8 µM | 20.2 µM | 0.0483 µM |  |
| CCS(=O)(=O)Cc1ccc(Oc2ccc(F)cc2F)c(-c2ccc3[nH]c(=O)c(C)nc3c2)c1 | > 50 µM | > 50 µM | 25.1 µM | 45.8 µM | 0.777 µM |  |
